Test results as given in patent US20030135023A1, “Peptide structures useful for competitive modulation of dipeptidyl peptidase IV catalysis” (priority 2001, published 2003).
Read-outs that look alike come from different tables or passages of the source. Square brackets hold non-standard residues; d marks the D form. Peptide text beside a SMILES is read from it. * marks the point of attachment. aIle = CC[C@@H](C)[C@H](N)C(=O)O; Tic = O=C(O)[C@@H]1Cc2ccccc2CN1; Aoc(2) = CCCCCC[C@H](N)C(=O)O; Phg = N[C@H](C(=O)O)c1ccccc1; Tle = CC(C)(C)[C@H](N)C(=O)O; Pip = O=C(O)[C@@H]1CCCCN1; Nle = CCCC[C@H](N)C(=O)O; Orn = NCCC[C@H](N)C(=O)O; Aze = O=C(O)[C@@H]1CCN1; Nva = CCC[C@H](N)C(=O)O; Abu = CC[C@H](N)C(=O)O; Bn = c1ccc(C*)cc1

What was measured:
purified porcine DP IV [1] = target: T1, purified porcine DP IV (Sus scrofa, UniProt P22411); test: Determination of IC50-values, Gly-Pro-pNA cleavage by DP IV; assay type: biochemical; details: Gly-Pro-pNA 0.4 mM, HEPES pH 7.6, 30° C.; read-out: IC50
T1 sequence (P22411 whole entry): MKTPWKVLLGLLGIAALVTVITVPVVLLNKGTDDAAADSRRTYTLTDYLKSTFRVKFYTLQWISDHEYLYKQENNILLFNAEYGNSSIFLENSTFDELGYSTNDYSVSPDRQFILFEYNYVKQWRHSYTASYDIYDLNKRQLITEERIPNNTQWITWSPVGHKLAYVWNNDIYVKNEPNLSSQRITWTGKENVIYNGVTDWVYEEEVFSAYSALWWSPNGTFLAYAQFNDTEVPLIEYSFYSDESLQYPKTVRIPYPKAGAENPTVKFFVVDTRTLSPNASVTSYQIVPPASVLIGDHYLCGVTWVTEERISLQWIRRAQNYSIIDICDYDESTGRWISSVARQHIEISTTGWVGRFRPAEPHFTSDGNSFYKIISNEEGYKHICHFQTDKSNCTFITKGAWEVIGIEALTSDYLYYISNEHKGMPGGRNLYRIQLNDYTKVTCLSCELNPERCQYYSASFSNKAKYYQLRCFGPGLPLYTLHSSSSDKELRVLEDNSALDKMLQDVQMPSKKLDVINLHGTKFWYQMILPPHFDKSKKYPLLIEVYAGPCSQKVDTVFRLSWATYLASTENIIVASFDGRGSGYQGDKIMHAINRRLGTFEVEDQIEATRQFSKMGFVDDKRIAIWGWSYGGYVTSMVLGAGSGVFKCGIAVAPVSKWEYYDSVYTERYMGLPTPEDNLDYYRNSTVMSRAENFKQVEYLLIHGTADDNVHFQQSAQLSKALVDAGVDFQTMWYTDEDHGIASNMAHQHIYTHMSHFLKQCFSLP
Procedure: (§1) 100 μl inhibitor stock solution were mixed with 100 μl buffer (HEPES pH 7.6) and 50 μl substrate (Gly-Pro-pNA, final concentration 0.4 mM) and preincubated at 30° C. Reaction was started by addition of 20 μl purified porcine DP IV. Formation of the product pNA was measured at 405 nm over 10 min using the HTS 7000 Plus plate reader (Perkin Elmer) and slopes were calculated. The final inhibitor concentrations ranged between 1 mM and 30 nM.
For calculation of IC50-values GraFit 4.0.13 (Erithacus Software) was used.

purified porcine DP IV [2] = target: T1, purified porcine DP IV; test: Determination of Ki-values, Gly-Pro-pNA cleavage by DP IV; assay type: biochemical; details: Gly-Pro-pNA 0.05-0.4 mM
Procedure: as §1
Calculations were performed using the GraFit Software.

[3] = system: diabetic Zucker rats (fa/fa); test: Oral glucose tolerance test (OGTT) in diabetic Zucker rats; assay type: in vivo; details: 100 mg/kg b.w. p.o.; for Improvement of glucose tolerance: AUC test compound vs AUC Control; for AUC test compound (glucose, OGTT): OGTT 2 g/kg glucose
Procedure: N=30 male Zucker rats (fa/fa), mean age 11 weeks (5-12 weeks), mean body weight 350 g (150-400 g), were purchased from Charles River (Sulzfeld, Germany). They were kept for >12 weeks until all the fatty Zucker rats had the characteristics of manifest Diabetes mellitus.
After overnight fasting, the fatty Zucker rats were given placebo, positive control and test substance, respectively, via feeding tube orally (15 G, 75 mm; Fine Science Tools, Heidelberg, Germany) at −10 min. An oral glucose tolerance test (OGTT) with 2 g/kg b.w. glucose as a 40% solution (B. Braun Melsungen, Melsungen, Germany) was implemented at ±0 min. The glucose was administered via a second feeding tube. Arterial blood samples from the carotid catheter were collected at −30 min, −15 min, ±0 min and at 5, 10, 15, 20, 30, 40, 60, 90 and 120 min into 20 μl glass capillaries, which were placed in standard tubes filled with 1 ml solution for hemolysis (blood glucose measurement).
Blood glucose: Glucose levels were measured using the glucose oxidase procedure (Super G Glukosemeβgerät; Dr. Müller Gerätebau, Freital, Germany).

plasma DP IV = target: T2, plasma DP IV (Rattus norvegicus, UniProt P14740); test: Plasma DP IV activity after intravasal and oral administration in Wistar rats; assay type: in vivo; details: rat, Wistar rats, 100 mg/kg
T2 construct: The assay mixture consisted of 80 μl reagent and 20 μl plasma; from tissue; host or cells: plasma of Wistar rats
T2 sequence (P14740 37-767 limits assumed): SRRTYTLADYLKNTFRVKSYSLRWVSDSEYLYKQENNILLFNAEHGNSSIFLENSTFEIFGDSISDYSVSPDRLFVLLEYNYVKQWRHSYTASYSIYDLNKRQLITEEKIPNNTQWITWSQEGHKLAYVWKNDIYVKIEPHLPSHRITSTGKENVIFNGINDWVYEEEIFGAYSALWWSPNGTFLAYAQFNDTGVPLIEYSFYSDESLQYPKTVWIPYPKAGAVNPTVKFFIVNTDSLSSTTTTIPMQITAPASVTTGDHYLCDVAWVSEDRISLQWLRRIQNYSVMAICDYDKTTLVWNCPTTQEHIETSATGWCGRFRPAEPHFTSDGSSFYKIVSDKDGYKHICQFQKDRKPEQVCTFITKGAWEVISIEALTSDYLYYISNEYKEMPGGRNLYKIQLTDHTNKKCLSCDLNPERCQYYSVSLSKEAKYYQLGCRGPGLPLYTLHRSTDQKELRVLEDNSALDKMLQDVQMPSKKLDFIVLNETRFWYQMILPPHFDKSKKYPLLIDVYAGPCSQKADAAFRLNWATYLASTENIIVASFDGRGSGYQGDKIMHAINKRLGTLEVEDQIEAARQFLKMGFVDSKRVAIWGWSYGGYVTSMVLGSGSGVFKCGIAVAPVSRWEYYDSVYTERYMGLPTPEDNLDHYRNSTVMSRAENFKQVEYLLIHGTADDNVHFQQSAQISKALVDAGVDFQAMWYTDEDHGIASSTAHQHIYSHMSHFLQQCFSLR
Procedure: Rats with intact catheter function were given the test substances intravasal (intraarterial) or oral, respectively, in random order (N=3 Wistar rats in each group). As positive control, […]. isoleucine thiazolidine*fumarate were administered intravasal.
After overnight fasting, 100 μl samples of heparinized arterial blood were collected at −30, −5, and 0 min into ice-cooled Eppendorf tubes (see below). The test substances were dissolved freshly in 1.0 ml saline (0.154 mol/l) and were given at 0 min either oral via a feeding tube ([…], 75 mm; Fine Science Tools, Heidelberg, Germany) or intravasal. For the intravasal route, the catheter was immediately flushed with 30 μl saline and an additional 1 ml of saline was given orally via the feeding tube.
Arterial blood samples were taken thereafter at 5, 10 (only in a limited number of experiments), 20, 40, 60 and 120 min from the carotid catheter of the conscious unrestrained rats and were always given into ice cooled Eppendorf tubes (Eppendorf-Netheler-Hinz, Hamburg, Germany) filled with 10 μl 1 M citrate buffer pH 3.0 for prevention of further hydrolysis of tripeptides by plasma DP IV activity. Eppendorf tubes were centrifuged immediately (12000 rpm for 2 min, Hettich Zentrifuge EBA 12, Tuttlingen; Germany): The plasma fractions were store on ice until analysis or were deeply frozen at −20 ° C. until analysis.
Plasma DP IV activity: The assay mixture consisted of 80 μl reagent and 20 μl plasma. Kinetic measurements of the formation of the yellow product 4-nitroaniline were performed at 390 nm for 1 min at 30° C. after 2 min pre-incubation at the same temperature. The activity was expressed as arbitrary units [AU] and DP IV activity [mU/ml].
The absolute values of plasma DP IV activity, the relative change of plasma DP IV activity and the time and extent of maximal inhibition were calculated. Data presentation included the presentation of area under the curve (AUC), which was used for evaluation of extent of inhibition of plasma DP IV activity during the two hours of observation. AUC was calculated using the trapezoidal rule.
To compare relative changes of parameters under the conditions of different initial values of DP IV activity an uniform standardised mean (values) was set up at the beginning of the test (see Figures and Tables).
Statistical evaluations were performed with Microsoft Excel® 97. All variables are presented as mean and standard deviation (SD). Treatment groups were compared by Student's t-test, within-group changes by paired t-test. Two-tailed values of p<0.05 were considered significant.

Row | Compound | IC50 (purified porcine DP IV [1]) [µM] | Ki (purified porcine DP IV [2]) [µM] | further results
1 | CCCC[C@H](N)C(=O)N1CCC[C@H]1C(=O)N[C@H](C(=O)O)[C@@H](C)CC [Nle−Pro-Ile, Nle-Pro-Ile] (H-[Nle]-Pro-Ile-OH; N-terminus and C-terminus assumed) | 21.9 | 9.6 | –
2 | CC[C@H](C)[C@H](NC(=O)[C@@H]1CCCN1C(=O)[C@@H](N)c1ccccc1)C(=O)O [Phg-Pro-Ile] (H-[Phg]-Pro-Ile-OH; N-terminus and C-terminus assumed) | 154 | – | –
3 | CC[C@@H](C)[C@H](NC(=O)[C@@H]1CCCN1C(=O)[C@@H](N)Cc1ccc(O)cc1)C(=O)O [Tyr-Pro-(allo)Ile, Tyr-Pro-allo-Ile] (H-Tyr-Pro-[aIle]-OH; N-terminus and C-terminus assumed) | 64.1 | 18.2 | –
4 | CC[C@H](C)[C@H](N)C(=O)N1CCC[C@H]1C(=O)N[C@H](C(=O)O)C(C)(C)C [Ile-Pro-t-butyl-Gly] (H-Ile-Pro-[Tle]-OH; N-terminus and C-terminus assumed) | 82.3 | 18.9 | Improvement of glucose tolerance [3]: 5.3%; AUC test compound (glucose, OGTT) [3]: 819.5 mmol·min/L
5 | CCC[C@H](N)C(=O)N1CCC[C@H]1C(=O)N[C@H](C(=O)O)[C@@H](C)CC [Nva-Pro-Ile] (H-[Nva]-Pro-Ile-OH; N-terminus and C-terminus assumed) | 24.9 | 6.17 | –
6 | CC[C@H](C)[C@H](NC(=O)[C@@H]1CCCN1C(=O)[C@@H]1CCCCN1)C(=O)O [Pip-Pro-Ile] (H-[Pip]-Pro-Ile-OH; N-terminus and C-terminus assumed) | > 100000 | – | –
7 | CC[C@@H](C)[C@H](NC(=O)[C@@H]1CCCN1C(=O)[C@@H](N)[C@@H](C)CC)C(=O)O [Ile−Pro-(allo)Ile, Ile-Pro-allo-Ile] | 15.4 | 5.22 | –
8 | CCCCCC[C@H](N)C(=O)N1CCC[C@H]1C(=O)N[C@H](C(=O)O)[C@@H](C)CC [AOA-Pro-Ile, 2-Amino octanoic acid-Pro-Ile] (H-[Aoc(2)]-Pro-Ile-OH) | 42.1 | 12.6 | –
9 | CC[C@H](N)C(=O)N1CCC[C@H]1C(=O)N[C@H](C(=O)O)[C@@H](C)CC [Abu-Pro-Ile] (H-[Abu]-Pro-Ile-OH; N-terminus and C-terminus assumed) | 34.3 | 8.75 | –
10 | CC[C@H](C)[C@H](NC(=O)[C@@H]1CCCN1C(=O)[C@@H](N)COCc1ccccc1)C(=O)O [Ser(Bzl)-Pro-Ile] (H-Ser(Bn)-Pro-Ile-OH; N-terminus and C-terminus assumed) | 67.8 | 21.6 | –
11 | CC[C@H](C)[C@H](NC(=O)[C@@H]1CCCN1C(=O)[C@@H](N)C(C)(C)C)C(N)=O [t-butyl-Gly-Pro-Ile-NH2, t-butyl-Gly-Pro-Ile-amide] (H-[Tle]-Pro-Ile-NH2; N-terminus assumed) | 22.9 | 5.6 | –
12 | CC(C)[C@H](N)C(=O)N1CCC[C@H]1C(=O)N[C@H](C(=O)O)C(C)(C)C [Val-Pro-t-butyl-Gly] (H-Val-Pro-[Tle]-OH; N-terminus and C-terminus assumed) | – | 19.6 | Improvement of glucose tolerance [3]: 16.5%; AUC test compound (glucose, OGTT) [3]: 722.4 mmol·min/L
13 | CC(C)[C@H](NC(=O)[C@@H]1CCCN1C(=O)[C@@H](N)C(C)(C)C)C(=O)O [t-butyl-Gly-Pro-Val] (H-[Tle]-Pro-Val-OH; N-terminus and C-terminus assumed) | 13.8 | 3.1 | inhibition at 100 mg/kg (plasma DP IV; iv, i.v., read-out: DPIV inhibition at tmax, i.v.): 72%; inhibition at 100 mg/kg (plasma DP IV; po, p.o., read-out: DPIV inhibition at tmax, p.o.): 25%
14 | CC(C)(C)[C@H](N)C(=O)N1CCC[C@H]1C(=O)NCC(=O)O [t-butyl-Gly-Pro-Gly] (H-[Tle]-Pro-Gly-OH; N-terminus and C-terminus assumed) | 56.3 | 15.1 | –
15 | CC[C@H](C)[C@H](NC(=O)[C@@H]1CCCN1C(=O)[C@@H]1Cc2ccccc2CN1)C(=O)O [Tic-Pro-Ile] (H-[Tic]-Pro-Ile-OH; N-terminus and C-terminus assumed) | 800 | – | –
16 | CC[C@H](C)[C@H](NC(=O)[C@@H]1CCCN1C(=O)[C@@H]1CCN1)C(=O)O [Aze−Pro-Ile, Aze-Pro-Ile] (H-[Aze]-Pro-Ile-OH; N-terminus and C-terminus assumed) | 72.8 | 20.5 | –
17 | CC[C@@H](C)[C@H](NC(=O)[C@@H]1CCCN1C(=O)[C@@H](N)C(C)C)C(=O)O [Val-Pro-(allo)Ile, Val-Pro-allo-Ile] | 18 | 9.54 | –
18 | CC(C)(C)[C@H](N)C(=O)N1CCC[C@H]1C(=O)N[C@H](C(=O)O)C(C)(C)C [t-butyl-Gly-Pro-t-butyl-Gly] (H-[Tle]-Pro-[Tle]-OH; N-terminus and C-terminus assumed) | 24.5 | 14.1 | –
19 | CC[C@H](C)[C@H](NC(=O)[C@@H]1CCCN1C(=O)[C@@H](N)CCCN)C(=O)O [Orn-Pro-Ile] (H-[Orn]-Pro-Ile-OH; N-terminus and C-terminus assumed) | 216 | – | –
